# Reference: patent US20240174625A1, “COMPOSITIONS AND METHODS FOR TREATING TAUOPATHIES” (The Regents of the University of California, priority 2021, published 2024)
# “Also recorded” adds a separate entry of the source.
# Legend:
# NPEPPS = molecular target: T1, NPEPPS (Homo sapiens, UniProt P55786); assay: Cell-based NPEPPS activity assay (Q-AMC fluorescence); conditions: log10 transformed; EC50 = concentration that elevates 50% NPEPPS activity (150% of DMSO baseline); HEK293T cells
# T1 construct: endogenous in cells; host or cells: HEK293T
# T1 sequence (P55786 whole entry): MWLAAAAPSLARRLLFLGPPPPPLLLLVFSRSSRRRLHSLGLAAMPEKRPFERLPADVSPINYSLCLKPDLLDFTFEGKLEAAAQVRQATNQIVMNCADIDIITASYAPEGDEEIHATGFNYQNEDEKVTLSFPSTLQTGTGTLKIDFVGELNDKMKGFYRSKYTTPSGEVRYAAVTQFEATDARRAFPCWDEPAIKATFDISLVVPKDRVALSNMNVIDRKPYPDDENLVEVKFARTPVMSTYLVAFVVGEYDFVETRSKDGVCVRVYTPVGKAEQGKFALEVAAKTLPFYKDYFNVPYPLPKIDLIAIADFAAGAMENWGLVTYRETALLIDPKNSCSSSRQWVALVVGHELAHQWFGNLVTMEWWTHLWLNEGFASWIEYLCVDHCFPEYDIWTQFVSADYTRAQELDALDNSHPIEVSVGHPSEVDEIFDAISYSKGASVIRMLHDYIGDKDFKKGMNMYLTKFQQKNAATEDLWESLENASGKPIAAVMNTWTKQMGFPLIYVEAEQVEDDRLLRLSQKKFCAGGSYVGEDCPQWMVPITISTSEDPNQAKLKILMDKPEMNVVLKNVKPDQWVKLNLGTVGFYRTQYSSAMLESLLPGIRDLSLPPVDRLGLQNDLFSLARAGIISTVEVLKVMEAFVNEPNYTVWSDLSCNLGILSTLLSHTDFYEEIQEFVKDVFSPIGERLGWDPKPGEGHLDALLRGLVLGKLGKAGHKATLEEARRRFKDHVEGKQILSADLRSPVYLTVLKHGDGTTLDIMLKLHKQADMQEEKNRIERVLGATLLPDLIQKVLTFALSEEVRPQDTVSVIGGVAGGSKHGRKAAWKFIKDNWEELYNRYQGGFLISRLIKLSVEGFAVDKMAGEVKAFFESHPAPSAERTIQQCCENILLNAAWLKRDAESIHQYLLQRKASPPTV
# Outline: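 HEK293T cells (16,500/well) on poly-L-ornithine in minimal medium with compounds in 20-step 2-fold dilution for 24 h, then H-Gln-AMC added (30 μl of 200 μM). Fluorescence (ex/em 360/460 nm) read at addition and 3 h later; change in fluorescence taken as NPEPPS activity, giving EC50 versus DMSO control.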
# [1] = In vivo plasma pharmacokinetics; parameters: species or system mouse; conditions: mice; for half life / plasma PK parameters / Cmax (maximum plasma concentration observed): 20 mg/kg i.p., compared to JMM001
# Description: Adult hTau^P301S homozygous mice (Tg2541Godt mice, a transgenic mouse model of tauopathy carrying a human Tau^P301S mutation^19 and wild-type (WT) littermates on a C57BL/6J background of both genders were used in the in vivo efficacy on Tau histopathology experiments. hTauP301S homozygous mice were obtained as gifts from Dr. Michel Goedert at MRC Laboratory of Molecular Biology, Cambridge, UK and Dr. Stanley Prusiner at UCSF, USA, and were re-derived onto a pure C57BL/6J genetic background by Dr. Prusiner's lab. Mice were periodically outcrossed with WT C57BL/6J mice (Strain #000664) from Jackson Laboratory (Bar Harbor, ME) to maintain genetic diversity. Animals were group-housed in a temperature-controlled facility (73±2° F., 45% humidity, regular 12-hour light/dark cycle, lights on at 7 AM), with food and water ad libitum. All experimental procedures were approved by the ARC administrative office at the University of California Los Angeles (UCLA) and the UCLA institutional animal care and use committee (IACUC) and followed the USDA Animal Welfare Act Regulations, the Public Health Service (PHS) Policy on Humane Care and Use of Laboratory Animals, and the Guide for the Care and Use of Laboratory Animals. Adult male WT mice on a C57BL/6J background (Strain #000664), purchased from Jackson Laboratory (Bar Harbor, ME), were used in the in vivo pharmacokinetics and blood-brain barrier penetration studies. Animals were randomly assigned to experimental groups and tested by experimenters blinded to experimental conditions.
# In vivo pharmacokinetics and blood-brain barrier penetration studies are conducted at UCSD-DMPK core following their standard of operation protocols. Briefly, freshly prepared JMM compounds (e.g., JMM001, JMM013, JMM015, JMM052, JMM067, and JMM086) formulated in a vehicle (1:1:1:7 DMSO: Cremophor: Ethanol: Saline) were administered to C57BL/6J mice at 20 mg/kg systemically (i.p., i.v., or p.o.) at various time points (0, 0.5, 1, 2, 4, 8, and 24 hrs post-injection) with five mice per group. Plasma samples were collected, and compound plasma levels were measured using LC/MS. […] Brain samples are then processed following and compound concentrations in the brain sample were measured via LC/MS. Compound brain levels are normalized to the mass of brain in a unit of ng/mg.
EC50 (NPEPPS) [µM],oral bioavailability ([1]; 20 mg/kg i.v. or p.o.),half life [1],plasma PK parameters [1],Cmax (maximum plasma concentration observed) [1],half life ([1]; 20 mg/kg),SMILES
15.8,high,–,–,–,–,COc1ccc(CNc2nsc3ccccc23)cc1OC [JMM001]
15.1,–,improved,improved,–,–,c1ccc2c(CNc3nsc4ccccc34)cccc2c1 [JMM013]
0.708,–,–,improved,increasing,improved; also recorded: increasing,c1ccc(COc2ccc(CNc3nsc4ccc(OCc5ccccc5)cc34)cc2)cc1 [JMM083]
8.13,–,–,improved,increasing,improved; also recorded: increasing,CN(Cc1ccc(C(F)(F)F)cc1)c1nsc2ccccc12 [JMM067]
17,–,–,improved,increasing,improved; also recorded: increasing,c1ccc2c(c1)-c1ccccc1C2Nc1nsc2ccccc12 [JMM052]
